Results from patent US9795687B2, “Modularly assembled small molecules for the treatment of myotonic dystrophy type 1” (The Scripps Research Institute, priority 2013, dated 2017).

Legend:
r(CUG)12-MBNL1 complex = assay: TR-FRET assay, disruption of the r(CUG)12-MBNL1 complex; format: biochemical; details: among third generation compounds (2H-K4NPr derivatives)
Protocol: As mentioned above, DM1 is caused by sequestration of MBNL1 by r(CUG)^exp.^28, 32-37 Therefore, in vitro potency was determined by measuring displacement of MBNL1 from a r(CUG)12-MBNL1 complex using a time-resolved FRET (TR-FRET) assay.^15, 47 Each dimeric compound disrupts the r(CUG)12-MBNL1 complex with IC50's between ˜3 and ˜300 μM (FIG. 3). […] This may be due to the presence of imino protons that can favorably interact with the phosphodiester backbone of RNA (FIG. 2).
Initial in vitro activity of modularly assembled compounds was assessed by disruption of the r(CUG)^exp-MBNL1 complex using a previously reported TR-FRET assay.^15, 47 The ratio of fluorescence intensity of 545 and 665 nm in the presence and absence of compound were used to calculate percent inhibition.
The resulting curves were fit to the following equation to determine IC50 values:
[formula] where y is the ratio of fluorescence intensities at 545 nm and 665 nm (F545/F665), x is the concentration of small molecule, B is the F545/F665 ratio reflective of the maximum amount of FRET observed (absence of small molecule); A is the F545/F665 ratio reflective of the minimum amount of FRET observed (absence of RNA, protein, and small molecule; only antibodies are present); and the IC50 is the concentration of small molecule where half of the protein is displaced by small molecule. Improvement of DM1-Associated Splicing Defects in a DM1 Cell Culture Model Using RT-PCR.

pronase = assay: Proteolytic stability against pronase digestion (HPLC); format: in vitro ADME, Streptomyces griseus K-1; design: key to Pronase Degradation (pH 7.8) / Pronase Degradation (pH 9): +: Pronase stable; ++: Intermediate Pronase stability; +++: Pronase unstable; details: 18 h, 400 μM compound
Protocol: Proteolytic stability of second and third generation compounds was assessed using pronase as previously described.^3 Pronase is a group of≧10 proteases isolated from Streptomyces griseus K-1. As such, proteolytic degradation was measured at two pH's, 7.8 and 9.0. Briefly, promise (1 unit) was added to the compound of interest (400 μM in 40 μL) in 1X Digestion Buffer (50 mM Tris-HCl, pH 7.8 or 9.0, and 10 mM CaCl2), and the reaction was incubated at 37° C. for 18 h. Reactions were quenched by addition of 4 μL of 25% acetic acid, and the products of the pronase digestion were analyzed by HPLC. A linear gradient of 0-100% methanol in H2O with 0.1% (v/v) TFA and a flow rate of 1 mL/min were employed.

[1] = tested on: Clcn1 and Serca1 (Atp2a1) alternative splicing in HSA^LR mice; assay: Alternative pre-mRNA splicing in DM1 mouse model (HSA^LR), RT-PCR of vastus muscle; format: in vivo
Text: 2H-K4NMe was selected for animal studies based on overall performance in cell-based assays, increased proteolytic stability as compared to 2H-KNH and decreased structural complexity compared to 2H-K4NPr. A mouse model of DM1 has been reported in which 250 rCUG repeats are expressed using an actin promoter (human skeletal actin long repeat, HSA^LR).^24 The presence of these repeats results in dysregulation of alternative splicing in the muscle-specific chloride ion channel (Clcn1) and the sarcoplasmic/endoplasmic reticulum calcium ATPase 1 (Serca1/Atp2a1) pre-mRNAs. Clcn1 exon 7a is excluded ˜100% in mRNA from normal adult mice; DM1 mice have an exclusion rate of ˜50%. After DM1 mice were treated for 7 days with 100 mg/kg/d of 2H-K4NMe, the exclusion rate of exon 7A was restored to 71% (p-value=0.007) (FIGS. 7 and 11). Mis-splicing of Serca1 exon 21 was also partially rescued. The exon 22 inclusion rate is ˜100% in normal adult mice and ˜11.8% in DM1 mice.
All experimental procedures, mouse handling, and husbandry were completed in accordance with the Association for Assessment and Accreditation of Laboratory Animal Care. A mouse model for DM1, HSA^LR in line 20b, was used.^24 HSA^LR mice express human skeletal actin RNA with 250 CUG repeats in the 3′ UTR. Age- and gender-matched HSA^LR mice were injected intraperitoncally with 100 mg/kg 2H-K4NMe in water for treatment or 0.9% NaCl for control once per day for 7 days. Mice were sacrificed one day after the last injection, and the vastus muscle was obtained. RNA was extracted from the vastus tissue, and cDNA was synthesized as previously described.^65
PCR amplification was carried out for 26-30 cycles with the following primer pairs: Clcn1 forward 5′-[…] (SEQ ID NO:5) and reverse 5′-(6FAM)[…] (SEQ ID NO:6); Secral forward 5′-(6FAM)[…] (SEQ ID NO:7) and reverse 5′- […] (SEQ ID NO:8). The PCR products were separated by agarose gel electrophoresis. The gel was scanned with a laser fluorimager (Typhoon, GE Healthcare), and the products were quantified using ImageQuant.

With `C[C@@H](C(=O)N(C)[C@@H](C)C(=O)N(C)[C@@H](C)C(=O)N(C)[C@@H](C)C(=O)N[C@@H](CCCCNC(=O)CCCOc1cccc(-c2nc3cc(-c4nc5cc(N6CCN(C)CC6)ccc5[nH]4)ccc3[nH]2)c1)C(N)=O)N(C)C(=O)CCCOc1cccc(-c2nc3ccc(-c4nc5cc(N6CCN(C)CC6)ccc5[nH]4)cc3[nH]2)c1` [Compound 2H-K4NMe] the “in vitro potency rank in TR-FRET assay” value (r(CUG)12-MBNL1 complex) was “most potent”, the “Pronase Degradation (pH 7.8)” value (pronase; pH 7.8, 37° C.) was “++” and the “Pronase Degradation (pH 9)” value (pronase; pH 9.0, 37° C.) was “++”. For the same compound, the “effect on alternative splicing of Itgb1 and CapZB mRNAs (not regulated by MBNL1)” value ([1]; 100 mg/kg/d for 7 days) was “did not affect”, the “Serca1 exon 22 inclusion rate” value ([1]; 100 mg/kg/d for 7 days, DM1 mice ˜11.8%, normal ˜100%) was 21.5% and the “Clcn1 exon 7a exclusion rate” value ([1]; 100 mg/kg/d intraperitoneally for 7 days, DM1 mice ˜50%, normal ˜100%) was 71%.
